Reference: US20040152708A1, “Trans-9,10-dehydroepothilone C and D, analogs thereof and methods of making the same” (priority 2002, published 2004)
Like-named read-outs stand apart in the source and are kept apart here.

Columns and labels:
[1] = test system: Human breast carcinoma cell line MCF-7; test: SRB cytotoxicity assay, MCF-7; assay type: cell-based
Experimental: (§1) Compounds of the invention may be screened for cytotoxicity using conventional assays well known to those skilled in the art. For example, cytotoxicity of the compounds may be determined by the SRB assay as disclosed in Skehan et al., J. Natl. Cancer Inst. 82:1107-1112 (1990), which is incorporated herein by reference. In the SRB assay, the following cultured cells are trypsinized, counted and diluted to the following concentrations per 100 μl with growth medium: MCF-7, 5000; NCI/ADR-Res, 7500; NCI-H460, 5000; A549, 5000; Skov3, 7500; and SF-268, 7500. The cells are seeded at 100 μl/well in 96-well microtiter plates. Twenty-four hours later, 100 μl of a test epothilone compound of the invention (ranging in concentration from 1000 nM to 0.001 nM diluted in growth medium) is added to each well. After incubation, with the compound for a period of days, the cells are fixed with 100 μl of 10% trichloroacetic acid (“TCA”) at 4 degrees for 1 hour, and stained with 0.2% sulforhodamine B (SRB)/1% acetic acid, and the bound SRB is then extracted with 200 μl of 10 mM Tris base. The amount of bound dye is determined by OD 515 nm, which correlates to the total cellular protein contents. The data is analyzed using standard statistical methodologies (such as those available with the software sold as KALEIDA GRAPH® by Synergy Software of Reading, Pa.) and the IC50s are calculated.
(§2) Human breast carcinoma cell line MCF-7, multi-drug resistant breast carcinoma cell line NCI/ADR, were obtained from the National Cancer Institute. Human non-small cell lung cancer cell line A549 and human ovarian cancer cell line SKOV-3 were obtained from American Type Culture Collection (Manassas, Va.). All cell lines were maintained in RPMI-1640 medium (Gibco/BRL, Rockville, Md.) supplemented with 2 mM L-glutamine, 25 mM HEPES and 10% FBS (Hyclone, Logan, Utah). Cells were maintained in a humidified incubator at 37° C. in 5% CO2.
(§3) Tumor cells were seeded in 100 μl at 5000 (MCF-7), 7500 (NCI/ADR), 5000 (A549) and 7500 (SKOV3) cells per well in 96-well plates. Cells were allowed to adhere for 24 hours. Each compound ranging from 0.001 to 1000 nM in 100 μl was added to cells in duplicate wells. After 3 days, cells were fixed at 4° C. for 1 hour with 10% trichloroacetic acid and then stained with 0.2% sulforhodamine B (SRB)/1% acetic acid for 20 minutes at room temperature. The unbound dye was rinsed away with 1% acetic acid, and the bounded SRB was then extracted with 200 μl of 10 mM Tris base. The absorbance was measured at 515 nm using a 96-well microtiter plate reader (Spectra Max 250, Molecular Devices). The IC50 values were calculated using a KaleidaGraph program. The experiments were performed twice.

[2] = test system: human ovarian cancer cell line SKOV-3; test: SRB cytotoxicity assay, SKOV3; assay type: cell-based
Experimental: as §1, §2, §3

[3] = test system: Human non-small cell lung cancer cell line A549; test: SRB cytotoxicity assay, A549; assay type: cell-based
Experimental: as §1, §2, §3

CYP2C19 = biological target: T1, CYP2C19 (Homo sapiens, UniProt P33261); test: Cytochrome P450 inhibition, CYP2C19; assay type: in vitro ADME
T1 construct: purchased BD GenTest, Woburn, Mass

[4] = test system: multi-drug resistant breast carcinoma cell line NCI/ADR; test: SRB cytotoxicity assay, NCI/ADR; assay type: cell-based, human
Experimental: as §1, §2, §3

[5] = Plasma protein binding (ultrafiltration); assay type: in vitro ADME; conditions: mouse or human plasma (species not given), 37° C.
Experimental: Plasma protein binding studies were performed as follows. Compounds were dissolved in DMSO, then diluted into either fresh or thawed samples of mouse or human plasma and incubated at 37° C. Time points of 50 μL were mixed with 100 μl of acetonitrile and centrifuged at ˜14000 rpm for 3 minutes. A 100 μL aliquot was removed from the supernatant and set aside for analysis to indicate compound in the total fraction. The remaining supernatant was transferred onto a Microcon ultrafiltration device fitted with a YM10 membrane and centrifuged to separate protein-bound material. A 50 μL aliquot of the protein-free filtrate was mixed with 100 μL of acetonitrile, centrifuged at ˜14000 rpm for 3 minutes, then 100 μL of the supernatant was collected and analyzed to determine the amount of compound not protein bound. The amount of compound in the total sample and in the protein-free fraction were determined by HPLC analysis against authentic standards.

CYP3A4 = biological target: T2, CYP3A4 (Homo sapiens, UniProt P08684); test: Cytochrome P450 inhibition (BD GenTest kit, BFC substrate), CYP3A4; assay type: in vitro ADME
T2 construct: purchased BD GenTest, Woburn, Mass
Excerpt: Following the procedure of Examples 39 (when R=methyl) and 42 (when R=CF3), the additional compounds shown in Table 2 were made by replacing (2-(tert-butyldimethyl-silyloxy)-methylthiazol-4-yl)methyltri-n-butyl-phosphonium chloride with the corresponding phosphonium chloride. Cytotoxicity data (Table 2) was obtained as described in Example 48. Cytochrome P450 inhibition data (Table 3) was obtained using the initial rate method against BFC substrate.
Cytochrome P450 inhibition measurements were performed using a commercially-available kit (BD GenTest, Woburn, Mass.), using BFC as substrate against CYP3A4.

[6] = Compound solubility in phosphate-buffered saline; assay type: physicochemical; conditions: aqueous buffer, kinetic from dmso stock; 5 μL of 20 mg/mL DMSO stock in 95 μL phosphate-buffered saline, 0.45 micron filter, HPLC
Experimental: Compound solubility was determined as follows: 5 μL of stock solution (at 20 mg/mL in DMSO) was added to 95 μL of phosphate-buffered saline. After being vortexed for about 10 seconds, the solution/suspension was filtered through a 0.45 micron filter and the amount of analyte was quantitated by HPLC. Solubilities (mg/mL) determined were as follows: epothilone D, <0.06; trans-9,10-dehydroepothilone D, <0.06; 21-OH-26-F3-trans-9,10-dehydroepothilone D, 0.1; 21-amino-trans-9,10-dehydroepothilone D, >0.6; 21-amino-26-F3-trans-9,10-dehydroepothilone D, >0.6; 26-F3-trans-9,10-dehydroepothilone D, <0.06; 21-OH-trans-9,10-dehydroepothilone D, 0.1; KOSN 1635, <0.02; KOSN 1632, 0.12.

[7] = Half-life in human plasma; conditions: fresh human plasma
Experimental: (§4) Half-lives of compounds in fresh mouse and human plasma were determined by dissolving the compounds in DMSO and adding aliquots to samples of mouse or human plasma. At Time Zero, aliquotted 75 μl from each sample and added 150 μl of acetonitrile. Centrifuged the white precipitate at 13500 rpm for 3 minutes. Transferred all the clear supernatant into another microcentrifuge tube and repeated the centrifuging step (13500 rpm/3 min). Carefully pipetted 150 μl of the clear supernatant into labeled HPLC sample tubes and tried to avoid pipetting any protein pellets. The samples were analyzed by HPLC to measure remaining compound at each time point by comparison with authentic standards.

[8] = Half-life in mouse plasma
Experimental: as §4, with “Half-lives of compounds in fresh mouse and human plasma were determined by dissolving the compounds in DMSO and adding aliquots to samples of mouse or human plasma.” left out

CYP2C9 = biological target: T3, CYP2C9 (Homo sapiens, UniProt P11712); test: Cytochrome P450 inhibition, CYP2C9; assay type: in vitro ADME
T3 construct: purchased BD GenTest, Woburn, Mass

[9] = Homo sapiens, MCF7, 72 h, Table 1, 3 days, SRB, read-out: IC50 MCF-7
[10] = Homo sapiens, SK-OV-3, 72 h, Table 1, 3 days, SRB, read-out: IC50 SKOV3
[11] = Homo sapiens, A549, 72 h, Table 1, 3 days, SRB, read-out: IC50 A549
[12] = Homo sapiens, NCI/ADR-RES, 72 h, Table 1, 3 days, SRB, read-out: IC50 NCI/ADR
[13] = Table 2, as described in Example 48, read-out: IC50 (nM) MCF-7
[14] = Table 2, as described in Example 48, read-out: IC50 (nM) Skov
[15] = Table 2, as described in Example 48, read-out: IC50 (nM) A549
[16] = Table 2, as described in Example 48, read-out: IC50 (nM) NCI/ADR

T2 sequence (P08684 whole entry): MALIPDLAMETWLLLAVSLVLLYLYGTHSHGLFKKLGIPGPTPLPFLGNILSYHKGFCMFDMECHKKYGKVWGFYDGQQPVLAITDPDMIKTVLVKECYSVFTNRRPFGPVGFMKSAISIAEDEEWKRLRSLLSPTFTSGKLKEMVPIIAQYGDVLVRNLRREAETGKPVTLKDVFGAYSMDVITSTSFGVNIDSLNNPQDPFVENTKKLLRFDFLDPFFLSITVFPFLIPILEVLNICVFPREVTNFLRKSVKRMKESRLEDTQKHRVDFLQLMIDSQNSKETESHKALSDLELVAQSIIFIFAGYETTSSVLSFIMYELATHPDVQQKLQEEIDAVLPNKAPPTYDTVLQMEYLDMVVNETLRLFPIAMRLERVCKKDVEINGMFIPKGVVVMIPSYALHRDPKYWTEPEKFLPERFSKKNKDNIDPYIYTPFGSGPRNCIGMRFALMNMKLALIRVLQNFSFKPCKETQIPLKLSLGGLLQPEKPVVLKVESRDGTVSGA
T3 sequence (P11712 whole entry): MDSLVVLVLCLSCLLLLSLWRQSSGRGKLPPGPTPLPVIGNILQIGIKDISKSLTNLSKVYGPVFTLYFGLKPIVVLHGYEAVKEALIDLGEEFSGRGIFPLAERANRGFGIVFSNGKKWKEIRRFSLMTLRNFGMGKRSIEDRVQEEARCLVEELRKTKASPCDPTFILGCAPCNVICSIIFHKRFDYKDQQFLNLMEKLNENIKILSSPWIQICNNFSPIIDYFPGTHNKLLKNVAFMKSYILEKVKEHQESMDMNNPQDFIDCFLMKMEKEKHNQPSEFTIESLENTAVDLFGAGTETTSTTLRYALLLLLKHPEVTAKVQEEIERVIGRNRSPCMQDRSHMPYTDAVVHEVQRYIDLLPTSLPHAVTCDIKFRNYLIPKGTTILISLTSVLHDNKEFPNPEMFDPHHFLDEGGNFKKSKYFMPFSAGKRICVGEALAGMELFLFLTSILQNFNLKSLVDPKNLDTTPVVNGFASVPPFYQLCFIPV
T1 sequence (P33261 whole entry): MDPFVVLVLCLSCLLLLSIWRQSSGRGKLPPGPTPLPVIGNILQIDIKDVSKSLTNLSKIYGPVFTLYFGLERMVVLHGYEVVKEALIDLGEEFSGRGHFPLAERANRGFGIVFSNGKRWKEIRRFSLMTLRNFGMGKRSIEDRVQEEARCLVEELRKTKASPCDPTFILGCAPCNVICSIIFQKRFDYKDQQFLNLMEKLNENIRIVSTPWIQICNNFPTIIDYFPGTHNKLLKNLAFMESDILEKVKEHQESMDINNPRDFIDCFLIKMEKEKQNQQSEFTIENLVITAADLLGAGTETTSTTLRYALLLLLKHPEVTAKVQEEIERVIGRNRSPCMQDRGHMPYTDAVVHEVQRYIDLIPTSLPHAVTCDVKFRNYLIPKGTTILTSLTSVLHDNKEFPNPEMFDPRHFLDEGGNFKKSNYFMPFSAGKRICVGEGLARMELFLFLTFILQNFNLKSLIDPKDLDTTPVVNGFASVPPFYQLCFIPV

| SMILES | IC50 [1, 9] | IC50 [2, 10] | IC50 [3, 11] | IC50 [4, 12] | solubility [6] | IC50 [1, 13] | IC50 [2, 14] | IC50 [3, 15] | IC50 [4, 16] | also measured |
| --- | --- | --- | --- | --- | --- | --- | --- | --- | --- | --- |
| C/C1=C/C[C@@H](/C(C)=C/c2csc(C)n2)OC(=O)C[C@H](O)C(C)(C)C(=O)[C@H](C)[C@@H](O)[C@@H](C)/C=C/C1 (relative stereo) [9,10-dehydroepothilone D, trans-9,10-dehydroepothilone D] | 2 nM | 6.2 nM | 4.7 nM | 6.2 nM | < 60 µg/mL |  |  |  |  | IC50 (CYP2C19; human): 2000 nM; percentage of compound protein bound [5]: 96.6%; IC50 (CYP3A4): 1600 nM; half-life [7]: > 24 h; half-life ([8]; frozen mouse plasma): 0.783 h; IC50 (CYP2C9; human): 10800 nM |
| C/C(=C\c1csc(C)n1)[C@@H]1C/C=C(/C(F)(F)F)C/C=C/[C@H](C)[C@H](O)[C@@H](C)C(=O)C(C)(C)[C@@H](O)CC(=O)O1 (relative stereo) [26-trifluoro 9,10-dehydroepothilone D, 26-trifluoro-trans-9,10-dehydroepothilone D, reference compound] | 5.3 nM | 22 nM | 11 nM | 33 nM | < 60 µg/mL |  |  |  |  | IC50 (CYP2C19; human): 3200 nM; percentage of compound protein bound [5]: 96.5%; IC50 (CYP3A4): 2000 nM; half-life [7]: > 24 h; half-life ([8]; fresh mouse plasma): 2.72 h; IC50 (CYP2C9; human): 14400 nM |
| C/C1=C/C[C@@H](/C(C)=C/c2ccc3ccccc3n2)OC(=O)C[C@H](O)C(C)(C)C(=O)[C@H](C)[C@@H](O)[C@@H](C)/C=C/C1 [17-des(2-methyl-4-thiazolyl)-17-(2-quinolyl)-9,10-dehydropeothilone D] | 8.9 nM | 19 nM | 25 nM | 24 nM |  |  |  |  |  |  |
| C/C1=C/C[C@@H](/C(C)=C/c2csc(CN)n2)OC(=O)C[C@H](O)C(C)(C)C(=O)[C@H](C)[C@@H](O)[C@@H](C)/C=C/C1 [21-NH2 9,10-dehydroepothilone D, 21-amino-9,10-dehydro-epothilone D] | 3.2 nM | 5.7 nM | 5.9 nM | 25 nM | > 600 µg/mL |  |  |  |  | IC50 (CYP2C19; human): 630 nM; percentage of compound protein bound [5]: 89.5%; IC50 (CYP3A4): 610 nM; half-life [7]: > 24 h; half-life ([8]; fresh mouse plasma): 0.983 h; IC50 (CYP2C9; human): 830 nM |
| C/C(=C\c1csc(CN)n1)[C@@H]1C/C=C(/C(F)(F)F)C/C=C/[C@H](C)[C@H](O)[C@@H](C)C(=O)C(C)(C)[C@@H](O)CC(=O)O1 [21-amino-9,10-dehydro-26-trifluoroepothilone D] | 9.7 nM | 40 nM | 35 nM | 330 nM | > 600 µg/mL |  |  |  |  |  |
| C/C1=C/C[C@@H](/C(C)=C/n2nnc3ccccc32)OC(=O)C[C@H](O)C(C)(C)C(=O)[C@H](C)[C@@H](O)[C@@H](C)/C=C/C1 [KOSN-1674] |  |  |  |  |  | 34 nM | 50 nM | 42 nM | 180 nM |  |
| C/C1=C/C[C@@H](/C(C)=C/c2cccnc2)OC(=O)C[C@H](O)C(C)(C)C(=O)[C@H](C)[C@@H](O)[C@@H](C)/C=C/C1 [KOSN-1690] |  |  |  |  |  | 35 nM | 39 nM | 38 nM | 110 nM |  |
| C/C1=C/C[C@@H](/C(C)=C/c2ccc(CO)cn2)OC(=O)C[C@H](O)C(C)(C)C(=O)[C@H](C)[C@@H](O)[C@@H](C)/C=C/C1 [KOSN-1703] |  |  |  |  |  | 0.61 nM | 4.5 nM | 2.4 nM | 7.1 nM | IC50 (CYP2C19): 10200 nM; IC50 (CYP2C9): 4000 nM |
| C/C1=C/C[C@@H](/C(C)=C/c2c[nH]cn2)OC(=O)C[C@H](O)C(C)(C)C(=O)[C@H](C)[C@@H](O)[C@@H](C)/C=C/C1 [KOSN-1712] |  |  |  |  |  | 20 nM | 37 nM | 31 nM | 220 nM |  |
| C/C1=C/C[C@@H](/C(C)=C/c2cc(C)on2)OC(=O)C[C@H](O)C(C)(C)C(=O)[C@H](C)[C@@H](O)[C@@H](C)/C=C/C1 [KOSN-1724] |  |  |  |  |  | 2.5 nM | 5.3 nM | 5.3 nM | 6.1 nM | IC50 (CYP2C19): 10900 nM; IC50 (CYP2C9): 12900 nM |
| C/C1=C/C[C@@H](/C(C)=C/c2csc(CN3CCOCC3)n2)OC(=O)C[C@H](O)C(C)(C)C(=O)[C@H](C)[C@@H](O)[C@@H](C)/C=C/C1 [KOSN-1727] |  |  |  |  |  | 390 nM | 490 nM | 420 nM | 410 nM |  |
| COc1ccnc(/C=C(\C)[C@@H]2C/C=C(/C)C/C=C/[C@H](C)[C@H](O)[C@@H](C)C(=O)C(C)(C)[C@@H](O)CC(=O)O2)c1 [KOSN-1756] |  |  |  |  |  | 2.1 nM | 4 nM | 4 nM | 4.9 nM | IC50 (CYP2C19): 1900 nM; IC50 (CYP2C9): 7100 nM |
| COC(=O)c1ccc(/C=C(\C)[C@@H]2C/C=C(/C)C/C=C/[C@H](C)[C@H](O)[C@@H](C)C(=O)C(C)(C)[C@@H](O)CC(=O)O2)nc1 [KOSN-1765] |  |  |  |  |  | 44 nM | 220 nM | 350 nM | 360 nM |  |
